Inhibition and residual activity data for two compounds are collected here from ChEMBL document CHEMBL4507288 (2021).

SMILES strings stand for the structures.

Test [1] concerns the target GABA-A receptor; anion channel (Rattus norvegicus) (UniProt O09028+P15431+P18506+P18508+P19969+P20236+P23574+P23576+P28471+P28473+P30191+P62813+P63079+P63138+Q91ZM7+Q9ES14). As to conditions: Compound concentration 10.0 uM.
Test [2] addresses Histamine H2 receptor (Homo sapiens, UniProt P25021). The note with it: Compound concentration 10.0 uM.
Test [3] concerns the target Inhibitor of nuclear factor kappa-B kinase subunit alpha (Homo sapiens) (UniProt O15111). The note with it: Compound concentration 1000.0 nM.
Test [4] deals with Receptor-type tyrosine-protein kinase FLT3 (Homo sapiens), P36888 [N841I]. As to conditions: Compound concentration 1000.0 nM.
The target in test [5] is SRSF protein kinase 1 (Homo sapiens) (UniProt Q96SB4). As to conditions: Compound concentration 1000.0 nM.
Test [6] concerns the target Ribosomal protein S6 kinase alpha-3 (Homo sapiens) (UniProt P51812). As to conditions: Compound concentration 1000.0 nM.
The target of test [7] is Aurora kinase C (Homo sapiens) (UniProt Q9UQB9). As to conditions: Compound concentration 1000.0 nM.
In test [8] the target is Mitogen-activated protein kinase 4 (Homo sapiens) (UniProt P31152). As to conditions: Compound concentration 1000.0 nM.
Test [9] deals with Ribosomal protein S6 kinase alpha-1 (Homo sapiens) (UniProt Q15418). The note with it: Compound concentration 1000.0 nM.
In test [10] the target is Protein kinase C epsilon type (Homo sapiens) (UniProt Q02156). The note with it: Compound concentration 1000.0 nM.
Test [11] has as its target Casein kinase I isoform alpha (Homo sapiens) (UniProt P48729). As to conditions: Compound concentration 1000.0 nM.
In test [12] the target is 5'-AMP-activated protein kinase catalytic subunit alpha-2 (Homo sapiens) (UniProt P54646). The note with it: Compound concentration 1000.0 nM.
Test [13] concerns the target Homeodomain-interacting protein kinase 3 (Homo sapiens) (UniProt Q9H422). The note with it: Compound concentration 1000.0 nM.
The subject of test [14] is Phosphatidylinositol 4,5-bisphosphate 3-kinase catalytic subunit alpha isoform (Homo sapiens), P42336 [E542K]. The note with it: Compound concentration 1000.0 nM.
Test [15] deals with Tyrosine-protein kinase JAK3 (Homo sapiens) (UniProt P52333). As to conditions: Compound concentration 1000.0 nM.
Test [16] addresses Cyclin-dependent kinase 9 (Homo sapiens) (UniProt P50750). As to conditions: Compound concentration 1000.0 nM.
Test [17] addresses Casein kinase I isoform alpha-like (Homo sapiens) (UniProt Q8N752). As to conditions: Compound concentration 1000.0 nM.
The target in test [18] is Casein kinase I isoform gamma-2 (Homo sapiens) (UniProt P78368). The note with it: Compound concentration 1000.0 nM.
Test [19] deals with MAP kinase-activated protein kinase 5 (Homo sapiens) (UniProt Q8IW41). The note with it: Compound concentration 1000.0 nM.
The subject of test [20] is Phosphatidylinositol 4,5-bisphosphate 3-kinase catalytic subunit alpha isoform (Homo sapiens), P42336 [I800L]. The note with it: Compound concentration 1000.0 nM.
Test [21] addresses Macrophage colony-stimulating factor 1 receptor (Homo sapiens) (UniProt P07333). As to conditions: Compound concentration 1000.0 nM.
Test [22] relates to Epidermal growth factor receptor (Homo sapiens), P00533 [G719S]. The note with it: Compound concentration 1000.0 nM.
Test [23] concerns the target Serine/threonine-protein kinase LATS2 (Homo sapiens) (UniProt Q9NRM7). The note with it: Compound concentration 1000.0 nM.
The target in test [24] is Beta-2 adrenergic receptor (Homo sapiens) (UniProt P07550). As to conditions: Compound concentration 10.0 uM.
The target of test [25] is Serine/threonine-protein kinase PAK 3 (Homo sapiens) (UniProt O75914). As to conditions: Compound concentration 1000.0 nM.
Test [26] addresses Serine/threonine-protein kinase PLK3 (Homo sapiens) (UniProt Q9H4B4). The note with it: Compound concentration 1000.0 nM.
Test [27] deals with Glycogen synthase kinase-3 alpha (Homo sapiens) (UniProt P49840). As to conditions: Compound concentration 1000.0 nM.
The target in test [28] is Ribosomal protein S6 kinase alpha-4 (Homo sapiens) (UniProt O75676). The note with it: Compound concentration 1000.0 nM.
For test [29], the target named is Aurora kinase A (Homo sapiens) (UniProt O14965). As to conditions: Compound concentration 1000.0 nM.
In test [30] the target is Protein kinase C eta type (Homo sapiens) (UniProt P24723). The note with it: Compound concentration 1000.0 nM.
In test [31] the target is Testis-specific serine/threonine-protein kinase 1 (Homo sapiens) (UniProt Q9BXA7). The note with it: Compound concentration 1000.0 nM.
Test [32] has as its target Serine/threonine-protein kinase pim-1 (Homo sapiens) (UniProt P11309). As to conditions: Compound concentration 1000.0 nM.
Test [33] concerns the target Eukaryotic translation initiation factor 2-alpha kinase 1 (Homo sapiens) (UniProt Q9BQI3). The note with it: Compound concentration 1000.0 nM.
Test [34] addresses Mitogen-activated protein kinase kinase kinase 1 (Homo sapiens) (UniProt Q13233). As to conditions: Compound concentration 1000.0 nM.
For test [35], the target named is Epidermal growth factor receptor (Homo sapiens) (UniProt P00533). As to conditions: Compound concentration 1000.0 nM.
The target of test [36] is Ribosomal protein S6 kinase alpha-6 (Homo sapiens) (UniProt Q9UK32). The note with it: Compound concentration 1000.0 nM.
Test [37] addresses Mitogen-activated protein kinase kinase kinase kinase 3 (Homo sapiens) (UniProt Q8IVH8). As to conditions: Compound concentration 1000.0 nM.
Test [38] concerns the target Myotonin-protein kinase (Homo sapiens) (UniProt Q09013). The note with it: Compound concentration 1000.0 nM.
In test [39] the test system is Tyrosine-protein kinase ABL1 (Homo sapiens), P00519 [H396P]. As to conditions: Compound concentration 1000.0 nM.
For test [40], the target named is Mitogen-activated protein kinase kinase kinase 10 (Homo sapiens) (UniProt Q02779). The note with it: Compound concentration 1000.0 nM.
Test [41] concerns the target Serine/threonine-protein kinase 3 (Homo sapiens) (UniProt Q13188). As to conditions: Compound concentration 1000.0 nM.
Test [42] concerns the target Serine/threonine-protein kinase Nek6 (Homo sapiens) (UniProt Q9HC98). As to conditions: Compound concentration 1000.0 nM.
For test [43], the target named is Rho-associated protein kinase 2 (Homo sapiens) (UniProt O75116). The note with it: Compound concentration 1000.0 nM.
In test [44] the target is Calcium/calmodulin-dependent protein kinase type II subunit beta (Homo sapiens) (UniProt Q13554). The note with it: Compound concentration 1000.0 nM.

5'-AMP-activated protein kinase catalytic subunit alpha-2 (Homo sapiens), sequence (P54646 whole entry, looked up): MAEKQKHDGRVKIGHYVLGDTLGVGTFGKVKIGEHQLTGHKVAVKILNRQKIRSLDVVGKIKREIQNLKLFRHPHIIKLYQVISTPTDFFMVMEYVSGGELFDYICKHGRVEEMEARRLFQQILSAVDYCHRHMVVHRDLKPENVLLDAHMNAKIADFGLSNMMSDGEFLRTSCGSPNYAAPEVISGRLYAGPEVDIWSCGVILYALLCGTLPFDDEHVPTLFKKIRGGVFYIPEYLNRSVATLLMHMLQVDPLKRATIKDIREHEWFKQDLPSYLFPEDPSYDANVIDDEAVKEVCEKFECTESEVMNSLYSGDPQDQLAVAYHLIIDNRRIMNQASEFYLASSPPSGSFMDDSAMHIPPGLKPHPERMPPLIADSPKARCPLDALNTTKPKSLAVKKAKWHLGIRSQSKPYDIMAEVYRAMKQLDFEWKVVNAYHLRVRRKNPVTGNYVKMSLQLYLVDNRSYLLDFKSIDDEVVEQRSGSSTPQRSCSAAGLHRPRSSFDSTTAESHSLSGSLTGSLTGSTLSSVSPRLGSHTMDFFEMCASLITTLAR
Cyclin-dependent kinase 9 (Homo sapiens), sequence (P50750 whole entry, canonical isoform): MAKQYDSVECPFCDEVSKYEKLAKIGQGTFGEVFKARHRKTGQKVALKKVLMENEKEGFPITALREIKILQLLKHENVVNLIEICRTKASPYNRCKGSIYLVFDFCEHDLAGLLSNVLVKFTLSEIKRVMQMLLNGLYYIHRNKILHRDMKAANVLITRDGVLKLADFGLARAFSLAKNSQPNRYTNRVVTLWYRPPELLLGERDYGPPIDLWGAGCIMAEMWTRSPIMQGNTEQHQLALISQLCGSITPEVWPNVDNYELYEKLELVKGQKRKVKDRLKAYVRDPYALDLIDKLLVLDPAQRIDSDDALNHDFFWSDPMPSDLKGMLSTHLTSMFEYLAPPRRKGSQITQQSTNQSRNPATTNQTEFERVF
MAP kinase-activated protein kinase 5 (Homo sapiens), sequence (Q8IW41 whole entry, canonical isoform): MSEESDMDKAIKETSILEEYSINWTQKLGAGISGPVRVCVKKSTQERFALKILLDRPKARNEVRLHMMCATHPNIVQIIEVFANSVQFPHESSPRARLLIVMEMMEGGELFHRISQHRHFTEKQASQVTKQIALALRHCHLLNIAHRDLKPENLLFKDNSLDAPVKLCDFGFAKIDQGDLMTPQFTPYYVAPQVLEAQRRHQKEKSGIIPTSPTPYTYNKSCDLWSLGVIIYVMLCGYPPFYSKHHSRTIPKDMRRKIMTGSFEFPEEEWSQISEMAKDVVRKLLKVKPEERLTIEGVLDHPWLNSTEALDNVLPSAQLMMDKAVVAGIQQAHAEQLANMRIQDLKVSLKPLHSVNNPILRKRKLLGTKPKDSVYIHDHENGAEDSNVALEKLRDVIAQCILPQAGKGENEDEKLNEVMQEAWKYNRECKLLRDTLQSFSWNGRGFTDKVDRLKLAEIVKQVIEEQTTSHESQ
Mitogen-activated protein kinase kinase kinase 10 (Homo sapiens), sequence (Q02779 whole entry, looked up): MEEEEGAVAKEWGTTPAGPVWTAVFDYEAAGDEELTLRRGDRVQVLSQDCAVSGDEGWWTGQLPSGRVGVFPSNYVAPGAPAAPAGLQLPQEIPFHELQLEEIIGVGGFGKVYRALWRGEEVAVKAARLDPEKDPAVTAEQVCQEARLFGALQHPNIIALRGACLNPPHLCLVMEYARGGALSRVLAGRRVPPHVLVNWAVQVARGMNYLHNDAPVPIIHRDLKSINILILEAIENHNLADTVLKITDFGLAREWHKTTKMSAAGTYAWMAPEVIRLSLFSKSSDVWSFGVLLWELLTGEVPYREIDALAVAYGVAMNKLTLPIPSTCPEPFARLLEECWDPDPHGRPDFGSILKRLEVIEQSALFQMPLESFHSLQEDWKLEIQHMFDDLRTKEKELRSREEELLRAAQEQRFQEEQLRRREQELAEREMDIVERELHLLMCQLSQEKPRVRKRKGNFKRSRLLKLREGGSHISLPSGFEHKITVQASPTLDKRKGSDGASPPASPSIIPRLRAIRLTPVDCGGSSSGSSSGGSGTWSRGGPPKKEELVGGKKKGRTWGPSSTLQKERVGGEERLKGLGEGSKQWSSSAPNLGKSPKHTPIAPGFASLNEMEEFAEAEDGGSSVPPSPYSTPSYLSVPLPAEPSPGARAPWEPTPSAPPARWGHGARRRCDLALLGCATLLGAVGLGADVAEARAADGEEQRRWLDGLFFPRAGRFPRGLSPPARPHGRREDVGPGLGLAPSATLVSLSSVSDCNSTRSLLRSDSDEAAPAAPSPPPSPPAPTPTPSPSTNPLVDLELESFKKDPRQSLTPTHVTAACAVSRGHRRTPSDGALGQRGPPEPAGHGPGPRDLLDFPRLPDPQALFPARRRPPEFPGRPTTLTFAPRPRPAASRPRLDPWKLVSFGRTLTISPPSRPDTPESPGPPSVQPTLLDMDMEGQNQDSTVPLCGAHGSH
Protein kinase C epsilon type (Homo sapiens), sequence (Q02156 whole entry, canonical isoform): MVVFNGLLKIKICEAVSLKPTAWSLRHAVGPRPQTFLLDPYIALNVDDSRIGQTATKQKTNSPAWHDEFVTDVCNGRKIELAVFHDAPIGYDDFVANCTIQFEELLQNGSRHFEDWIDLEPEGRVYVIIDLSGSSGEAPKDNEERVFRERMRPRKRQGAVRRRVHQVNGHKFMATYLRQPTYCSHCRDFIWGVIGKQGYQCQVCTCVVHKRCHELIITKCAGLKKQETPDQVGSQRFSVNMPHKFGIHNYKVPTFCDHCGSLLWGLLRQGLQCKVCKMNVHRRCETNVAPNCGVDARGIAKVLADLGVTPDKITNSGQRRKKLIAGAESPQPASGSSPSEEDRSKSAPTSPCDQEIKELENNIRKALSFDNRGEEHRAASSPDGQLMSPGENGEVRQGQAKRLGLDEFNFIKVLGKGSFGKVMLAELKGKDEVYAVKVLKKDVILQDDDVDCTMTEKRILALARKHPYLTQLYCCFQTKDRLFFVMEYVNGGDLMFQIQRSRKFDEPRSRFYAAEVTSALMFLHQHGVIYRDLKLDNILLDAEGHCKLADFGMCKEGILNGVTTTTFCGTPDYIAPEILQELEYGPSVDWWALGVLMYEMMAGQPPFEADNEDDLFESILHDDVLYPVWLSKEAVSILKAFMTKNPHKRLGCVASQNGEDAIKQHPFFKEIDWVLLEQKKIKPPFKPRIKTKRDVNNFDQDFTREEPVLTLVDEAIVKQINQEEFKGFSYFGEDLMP
Casein kinase I isoform alpha (Homo sapiens), sequence (P48729 2-337 limits assumed): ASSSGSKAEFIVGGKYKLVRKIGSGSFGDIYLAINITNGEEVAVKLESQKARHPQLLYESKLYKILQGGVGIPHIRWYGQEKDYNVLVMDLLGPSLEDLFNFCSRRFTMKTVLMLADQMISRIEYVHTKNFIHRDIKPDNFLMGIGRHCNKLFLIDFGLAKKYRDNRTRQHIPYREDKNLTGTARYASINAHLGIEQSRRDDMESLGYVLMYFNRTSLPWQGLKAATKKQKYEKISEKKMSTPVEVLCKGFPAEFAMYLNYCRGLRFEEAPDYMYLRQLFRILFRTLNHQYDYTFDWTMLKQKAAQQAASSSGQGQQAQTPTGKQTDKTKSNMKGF
Mitogen-activated protein kinase kinase kinase kinase 3 (Homo sapiens), sequence (Q8IVH8 whole entry): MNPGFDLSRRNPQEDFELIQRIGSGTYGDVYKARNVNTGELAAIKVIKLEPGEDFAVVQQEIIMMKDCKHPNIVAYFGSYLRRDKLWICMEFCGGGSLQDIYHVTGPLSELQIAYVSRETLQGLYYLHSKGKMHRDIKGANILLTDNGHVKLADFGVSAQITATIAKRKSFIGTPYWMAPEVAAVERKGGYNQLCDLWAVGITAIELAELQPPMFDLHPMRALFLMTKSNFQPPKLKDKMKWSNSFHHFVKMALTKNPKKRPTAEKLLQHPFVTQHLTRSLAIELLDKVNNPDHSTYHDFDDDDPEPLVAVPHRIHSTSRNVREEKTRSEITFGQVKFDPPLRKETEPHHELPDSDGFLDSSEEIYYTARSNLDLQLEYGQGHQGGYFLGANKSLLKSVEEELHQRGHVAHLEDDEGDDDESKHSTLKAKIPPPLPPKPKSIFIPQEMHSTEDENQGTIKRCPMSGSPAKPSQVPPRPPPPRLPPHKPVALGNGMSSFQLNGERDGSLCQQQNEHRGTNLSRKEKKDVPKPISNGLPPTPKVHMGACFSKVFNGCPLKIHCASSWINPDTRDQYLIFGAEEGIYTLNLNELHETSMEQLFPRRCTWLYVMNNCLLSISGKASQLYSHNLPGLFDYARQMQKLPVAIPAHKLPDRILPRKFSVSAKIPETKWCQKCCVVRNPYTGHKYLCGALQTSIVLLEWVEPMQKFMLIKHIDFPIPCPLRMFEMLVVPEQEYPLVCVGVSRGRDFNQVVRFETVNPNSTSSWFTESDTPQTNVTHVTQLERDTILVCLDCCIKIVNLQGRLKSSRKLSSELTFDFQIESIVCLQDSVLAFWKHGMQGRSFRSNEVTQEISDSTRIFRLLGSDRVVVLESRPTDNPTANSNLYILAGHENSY
Serine/threonine-protein kinase Nek6 (Homo sapiens), sequence (Q9HC98 whole entry): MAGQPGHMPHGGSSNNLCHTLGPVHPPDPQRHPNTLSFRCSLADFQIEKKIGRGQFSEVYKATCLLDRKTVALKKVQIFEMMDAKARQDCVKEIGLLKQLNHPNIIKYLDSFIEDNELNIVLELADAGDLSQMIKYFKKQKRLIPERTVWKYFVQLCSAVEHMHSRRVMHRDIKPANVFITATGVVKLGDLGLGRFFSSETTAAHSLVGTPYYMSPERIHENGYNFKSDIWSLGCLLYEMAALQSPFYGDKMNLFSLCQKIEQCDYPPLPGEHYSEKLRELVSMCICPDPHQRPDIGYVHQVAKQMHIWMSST
Casein kinase I isoform alpha-like (Homo sapiens), sequence (Q8N752 whole entry, canonical isoform): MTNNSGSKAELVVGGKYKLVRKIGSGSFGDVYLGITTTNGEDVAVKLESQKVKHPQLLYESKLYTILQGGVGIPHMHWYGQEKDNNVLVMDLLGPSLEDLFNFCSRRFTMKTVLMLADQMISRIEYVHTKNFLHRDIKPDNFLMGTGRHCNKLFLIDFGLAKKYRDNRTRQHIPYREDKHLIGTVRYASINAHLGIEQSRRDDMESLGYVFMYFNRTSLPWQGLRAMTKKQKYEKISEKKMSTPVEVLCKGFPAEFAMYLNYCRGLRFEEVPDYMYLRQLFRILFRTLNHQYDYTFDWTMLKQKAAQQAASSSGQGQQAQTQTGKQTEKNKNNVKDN

Usually inhibition stands for the drop in the measured response relative to a control, in per cent. For the compound `CC(C)(C)OC(=O)N1CCCC1CNC1CCC(c2cc(F)ccc2F)(S(=O)(=O)c2ccc(Cl)cc2)CC1` (centres undefined) [GSI-NC], the inhibition is 11% in [1] and 53.1% in test [2].

Consider `O=S(=O)(NC1CCC(c2cc(F)ccc2F)(S(=O)(=O)c2ccc(Cl)cc2)CC1)C(F)(F)F` (centres undefined) [MRK-560], for which the residual activity in test [3] is 100%; in test [4] it was 100%; in test [5], 100%; in [6] it was 96%; in [7] it was 94%; in [8], 95%. In addition, the residual activity was 100% in test [9]; 52% in [10]; 100% in [11]; 96% in test [12]; 100% in [13]; 100% in [14]. Moreover, the residual activity in [15] was 100%; in test [16], 91%; in test [17] it was 100%; in test [18], 99%; in test [19], 93%; in test [20], 98%. The residual activity in [21] was 100%; in test [22], 100%; in test [23], 0%; in test [25], 100%; in test [26], 97%; in [27], 87%. The residual activity in test [28] was 100%; in test [29], 100%; in [30], 99%; in test [31], 100%; in test [32], 100%; in test [33], 100%. In addition, the residual activity is 100% in test [34]; 100% in test [35]; 90% in test [36]; 100% in [37]; 100% in test [38]; 100% in test [39]. Moreover, the residual activity in [40] was 100%; in [41], 100%; in test [42], 100%; in [43], 100%; in test [44] it was 97%. In test [24], the inhibition is 9.91%.
